Measured values from patent US20250325511A1, “DIETARY BUTYRATE” (SOCIETE DES PRODUITS NESTLE S.A., priority 2019, published 2025).
“Also recorded” adds a separate entry of the source.

Tests used:
[1] = molecular target: T1, porcine pancreatic lipase (from pancreatin) (Sus scrofa, UniProt P00591)
T1 sequence (P00591 1-450): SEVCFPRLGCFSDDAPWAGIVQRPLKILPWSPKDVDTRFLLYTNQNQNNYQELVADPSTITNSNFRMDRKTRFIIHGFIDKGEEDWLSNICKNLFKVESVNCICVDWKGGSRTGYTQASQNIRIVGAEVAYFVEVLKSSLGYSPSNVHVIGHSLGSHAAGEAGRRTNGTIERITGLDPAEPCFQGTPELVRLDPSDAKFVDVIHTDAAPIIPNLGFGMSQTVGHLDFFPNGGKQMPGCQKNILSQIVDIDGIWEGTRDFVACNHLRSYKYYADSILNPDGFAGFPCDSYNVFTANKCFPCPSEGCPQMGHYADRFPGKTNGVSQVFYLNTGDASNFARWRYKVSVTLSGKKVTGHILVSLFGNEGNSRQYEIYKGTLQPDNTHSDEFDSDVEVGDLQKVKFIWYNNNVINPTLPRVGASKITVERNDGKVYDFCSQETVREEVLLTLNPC
T1 sequence (P02703 23-112 partner): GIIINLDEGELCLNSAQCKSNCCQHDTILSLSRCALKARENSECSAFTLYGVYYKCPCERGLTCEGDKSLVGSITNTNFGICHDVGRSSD

[2] = test system: rabbit gastric lipase followed by porcine pancreatic lipase; test: Sequential in vitro digestion SGF (RGL) followed by SIF (PPL), pH-stat
Description: No measurements were taken in the gastric compartment due to limited ionisation of the target fatty acids.

## CCCC(=O)OCC(COC(=O)CCC)OC(=O)CCC [tributyrin]
[1]; SIF alone, emulsion with 200 mg fat, pH 6.8, 37° C.
  Initial rate of lipolysis: 223 ± 59 µmol/min
[1]; back titration to pH 11.5, after SIF and SGF-SIF (FIG. 2)
  Overall extent of lipid digestion: 101.5±0.9%
[2]; after 90 min SGF with rabbit gastric lipase, emulsion with 200 mg fat
  Initial lipolysis rate in SIF during SGF-SIF digestion: 44.1 ± 8.8 µmol/min
[2]; in words
  Hydrolysis in the stomach (gastric compartment of the model): considerable digestion; also recorded: extensive hydrolysis
[2]; indicated by decreased total fatty acid release in SIF after RGL pre-exposure
  Lipolysis by gastric lipase: ~60%
